# Test results taken from ChEMBL document CHEMBL1155219, “Rapid generation of a high quality lead for transforming growth factor-beta (TGF-beta) type I receptor (ALK5)” (J Med Chem, 2009).
# Columns and labels:
# [1] = Octanol-phosphate buffered saline partition coefficient, log D at pH 7.4
# TGF-beta receptor type-1 [2] = biological target: T1, TGF-beta receptor type-1 (Homo sapiens, UniProt P36897); type: cell-based, MDA-MB-468
# T1 sequence (P36897 whole entry): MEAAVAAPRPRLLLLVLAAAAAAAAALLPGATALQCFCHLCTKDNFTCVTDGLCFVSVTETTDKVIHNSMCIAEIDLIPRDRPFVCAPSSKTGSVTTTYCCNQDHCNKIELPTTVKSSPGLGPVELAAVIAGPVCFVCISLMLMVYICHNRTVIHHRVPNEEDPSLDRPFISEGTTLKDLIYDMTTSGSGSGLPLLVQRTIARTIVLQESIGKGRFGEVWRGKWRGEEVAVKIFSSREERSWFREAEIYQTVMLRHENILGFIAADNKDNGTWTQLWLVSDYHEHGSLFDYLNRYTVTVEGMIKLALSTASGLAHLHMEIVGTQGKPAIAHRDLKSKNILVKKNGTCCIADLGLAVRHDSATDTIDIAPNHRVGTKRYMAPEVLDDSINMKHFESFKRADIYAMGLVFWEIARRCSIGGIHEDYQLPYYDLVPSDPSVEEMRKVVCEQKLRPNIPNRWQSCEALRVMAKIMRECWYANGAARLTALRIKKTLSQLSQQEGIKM
# Description: Inhibition of ALK5 in human MDA-MB-468 cells assessed as inhibition of nuclear translocation of GFP-2/Smad2 fusion reporter gene after 90 mins by Hoechst 3342 staining-based cellomics arrayscan imaging analysis
# TGF-beta receptor type-1 [3] = biological target: T1, TGF-beta receptor type-1; test: Inhibition of 6His-tagged human ALK5 expressed in baculovirus-infected SF21 cells after 30 mins by fluorescence polarization assay
# in vivo [4] = details: Han Wistar, rat, po, 5 umol/kg
# Description: Oral bioavailability in Han Wistar rat at 5 umol/kg
# [5] = Clearance in Han Wistar rat at 5 umol/kg, po; details: in vivo, iv
# in vivo [6] = details: Han Wistar, rat, plasma, po, 5 umol/kg
# Description: AUC in Han Wistar rat at 5 umol/kg, po
# [7] = octanol/phosphate buffered saline
SMILES,"logD [1, 7]",IC50 (TGF-beta receptor type-1 [2]),IC50 (TGF-beta receptor type-1 [3]),bioavailability (in vivo [4]),logD ([1]; octanol/water),clearance [5],AUC (in vivo [6])
Cc1cc(Oc2ccnc(Nc3ccc(F)cc3)c2)c(-c2ccccn2)nc1C,3.2,63 nM,129 nM,–,–,–,–
COc1cc(Nc2cc(Oc3cc(C)c(C)nc3-c3ccccn3)ccn2)cc(OC)c1OC,–,–,–,4%,–,–,–
COc1ccccc1Nc1cc(Oc2cc(C)c(C)nc2-c2ccccn2)ccn1,–,114 nM,7 nM,–,3.4,–,–
COc1cc(Nc2cc(Oc3cccnc3)ccn2)cc(OC)c1OC,2.7,> 5800 nM,227 nM,–,–,–,–
Cc1cc(Oc2ccnc(Nc3ccc(S(N)(=O)=O)cc3)c2)c(-c2ccccn2)nc1C,2.3,27 nM,21 nM,20%,–,–,0.47 µM·h
Cc1cc(Oc2ccnc(Nc3ccc(C(=O)N(C)C)cc3)c2)c(-c2ccccn2)nc1C,3.4,31 nM,12 nM,–,–,–,–
COc1cc(Nc2cc(Oc3ccc(C)nc3)ccn2)cc(OC)c1OC,–,282 nM,108 nM,–,3.2,–,–
COc1cc(Nc2cc(Oc3ccc(C)nc3C)ccn2)cc(OC)c1OC,3,21 nM,–,21%,–,–,0.34 µM·h
Cc1cc(Oc2ccnc(Nc3cccc(N4CCOCC4)c3)c2)c(-c2ccccn2)nc1C,3.3,–,–,–,–,–,–

# Results, then the molecule that gave them:
"logD [1, 7]",IC50 (TGF-beta receptor type-1 [2]),IC50 (TGF-beta receptor type-1 [3]),bioavailability (in vivo [4]),logD ([1]; octanol/water),clearance [5],AUC (in vivo [6]),SMILES
3.1,–,–,–,–,–,–,Cc1cc(Oc2ccnc(Nc3ccccc3N3CCOCC3)c2)c(-c2ccccn2)nc1C
–,628 nM,107 nM,–,–,–,–,COc1cc(Nc2cc(Oc3cccnc3C)ccn2)cc(OC)c1OC
2.6,–,–,–,–,–,–,Cc1cc(Oc2ccnc(Nc3ccc(N4CCOCC4)cc3)c2)c(-c2ccccn2)nc1C
–,–,–,75%,2.5,12 mL/min/kg,4.95 µM·h,Cc1ccc(Oc2ccnc(Nc3ccc(S(N)(=O)=O)cc3)c2)c(C)n1
3.4,20 nM,13 nM,–,–,–,–,COc1cc(Nc2cc(Oc3ccc(C)nc3-c3ccccn3)ccn2)cc(OC)c1OC
